Reference: patent US6818643B1, “Neurotrophic bicyclic diamides” (Bristol-Myers Squibb Company, priority 1999, dated 2004)
pKi: −log10 of the molar value.

Key:
FKBP12 [1] = molecular target: T1, FKBP12 (Homo sapiens, UniProt P62942); experiment: FKBP12 Rotamase Inhibition Assay; type: biochemical
Method: FKBP12 Rotamase Inhibition Assay
The rotamase activity of FKBP-12 was measured by an adaptation of the assay described by Kofron et al. (Biochemistry, 30, pp. 6127-6134 (1991)). The assay was carried out at 4° C. with 1 mg chymotrypsin/mL of assay with succinyl-Ala-Leu-Pro-Phe-p-nitroanilide as the substrate. Chymotrypsin rapidly hydrolyzes the peptide bond on the C-terminal side of the Phe of the trans form of the peptide and releases the chromogenic p-nitroaniline. The rate of the reaction is controlled by the rate of conversion of the cis form of the peptide to the trans-form, the reaction catalyzed by FKBP12. The apparent Ki values for inhibition of the rotamase activity were determined by measuring decreases in the first order rate constant of the reaction catalyzed by FKBP12 as a function of the concentrations of the compounds described herein. Ki is the concentration of the compound that causes 50 percent inhibition of rotamase activity which is indicative of neurite outgrowth activity.

FKBP12 [2] = molecular target: T1, FKBP12; experiment: Fluorescence Polarization (FP) Assay of FKBP12 Binding; settings: for inhibition at 1 µM: read-out: % FP inhibition at 1 μM; for Ki: rotamase Ki derived from FP assay
Method: Fluorescence Polarization (FP) Assay of FKBP12 Binding
The buffer (25 mM HEPES, 100 mM sodium chloride, pH 7.5) with pre-mixed enzyme and fluorescent ligand is distributed into wells (190 μL/well). Inhibitors are added as 10 μL of a 10% dimethylsulfoxide solution in the same buffer. FP is measured with an excitation wavelength of 485 nm and emission wavelength of 520 nm.

[3] = Table 1, 1 μM compound, 100 nM fluorescent ligand, 200 nM FKBP12
[4] = Table 2, 1 μM compound, 100 nM fluorescent ligand, 200 nM FKBP12

T1 sequence (P62942 whole entry, species assumed): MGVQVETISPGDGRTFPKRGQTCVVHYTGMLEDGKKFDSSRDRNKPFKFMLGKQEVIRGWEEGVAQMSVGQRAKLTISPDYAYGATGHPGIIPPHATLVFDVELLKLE

Structure (SMILES)	inhibition at 1 µM (FKBP12 [2]; [3])	inhibition at 1 µM (FKBP12 [2]; [4])	other results
COc1cc(C(=O)C(=O)N2C3CCC2C(=O)N(C(CCc2ccccc2)CCc2ccccc2)C3)cc(OC)c1OC [Example 5, (1S,5R)-8-(3,4,5-Trimethoxyphenyl)oxalyl-3,8-diaza-3-[3-phenyl-1-(2-phenylethyl)propyl]bicyclo[3.2.1]octan-2-one]	–	–	inhibition at 1 µM (FKBP12 [1]; Table 2, 1 μM compound): 49%
CCC(C)(C)C(=O)C(=O)N1CCCC[C@H]1C(=O)OC(CCCc1ccccc1)CCNC(=S)Nc1ccc(-c2c3ccc(=O)cc-3oc3cc(O)ccc23)c(C(=O)O)c1 (stereo partly drawn) [fluorescent FKBP12 ligand, 1-Phenyl-6-(fluoresceinylaminothiocarbamoyl)-4-hexyl-(S)-N-(t-pentylglyoxyl)pipecolate, reference compound]	–	–	pKi (FKBP12 [1]; read-out: Ki measured by the prolyl isomerase assay): 7.49
COc1cc(C(F)(F)C(=O)N2C3CCC2C(=O)N(CCCc2ccccc2)C3)cc(OC)c1OC [Example 27, (1S,5R)-8-(3,4,5-Trimethoxyphenyl)difluoroacetyl-3,8-diaza-3-(3-phenylpropyl)bicyclo[3.2.1]octan-2-one]	22%	–	–
COc1ccc(CCC(CCc2ccccc2)CN2C[C@H]3CC[C@@H](C2=O)N3C(=O)C(=O)c2cc(OC)c(OC)c(OC)c2)cc1OC (stereo partly drawn) [Example 14, (1S,5R)-8-(3,4,5-Trimethoxyphenyl)oxalyl-3,8-diaza-3-[4-(3,4-dimethoxyphenyl)-2-(2-phenylethyl)butyl]-bicyclo[3.2.1]octan-2-one]	–	–	Ki (FKBP12 [2]; Table 2): 169 nM
COC(=O)C(=O)N1C2CCCC1C(=O)N(CCCc1cc(OC)c(OC)c(OC)c1)C2 (stereo not shown) [Example 40, Methyl-2-{3,9-diaza-2-oxo-3-[3-(3,4,5-trimethoxyphenyl)propyl]bicyclo[3.3.1]non-9-yl}-2-oxoacetate]	6%	–	–
COc1ccc(CCCCN2CC3CCC(C2=O)N3C(=O)C(=O)c2cc(OC)c(OC)c(OC)c2)cc1OC [Example 4, (1S,5R)-8-(3,4,5-Trimethoxyphenyl)oxalyl-3,8-diaza-3-[4-(3,4-dimethoxyphenyl)butyl]bicyclo[3.2.1]octan-2-one]	15%	–	–
COc1ccc(CCCN2CC3CCCC(C2=O)N3C(=O)C(F)(F)c2cc(OC)c(OC)c(OC)c2)cc1OC (stereo not shown) [Example 35, 9-(3,4,5-Trimethoxyphenyl)difluoroacetyl-3,9-diaza-3-[3-(3,4-dimethoxyphenyl)propyl]bicyclo[3.3.1]nonan-2-one]	–	–	Ki (FKBP12 [2]; Table 1): 360 nM; inhibition at 1 µM (FKBP12 [2]): 47%
COc1ccc(CCCN2CC3CCC(C2=O)N3C(=O)C(F)(F)c2cc(OC)c(OC)c(OC)c2)cc1OC [Example 28, (1S,5R)-8-(3,4,5-Trimethoxyphenyl)difluoroacetyl-3,8-diaza-3-[3-(3,4-dimethoxyphenyl)propyl]bicyclo[3.2.1]octan-2-one]	13%	–	–
COc1cc(CCCC(CCCc2ccccc2)CN2CC3CCCC(C2=O)N3C(=O)C(F)(F)c2cc(OC)c(OC)c(OC)c2)cc(OC)c1OC (stereo not shown) [Example 38, 9-(3,4,5-Trimethoxyphenyl)difluoroacetyl-3,9-diaza-3-[2-(3-phenylpropyl)-5-(3,4,5-trimethoxyphenyl)pentyl]bicyclo[3.3.1]-nonan-2-one]	–	50%	–
COc1cc(C(=O)C(=O)N2C3CCC2C(=O)N(CC(CCCc2ccccc2)CCCc2ccccc2)C3)cc(OC)c1OC [Example 10, (1S,5R)-8-(3,4,5-Trimethoxyphenyl)oxalyl-3,8-diaza-3-[5-phenyl-2-(3-phenyl-propyl)pentyl]bicyclo[3.2.1]-octan-2-one]	–	14%	–
COc1cc(CCCC(CCCc2ccccc2)CN2CC3CCC(C2=O)N3C(=O)C(=O)c2cc(OC)c(OC)c(OC)c2)cc(OC)c1OC [Example 11, (1S,5R)-8-(3,4,5-Trimethoxyphenyl)oxalyl-3,8-diaza-3-[2-(3-phenylpropyl)-5-(3,4,5-trimethoxyphenyl)pentyl]bicyclo[3.2.1]octan-2-one]	–	17%	–
COc1ccc(CCCCN2CC3CCCC(C2=O)N3C(=O)C(=O)c2cc(OC)c(OC)c(OC)c2)cc1OC (stereo not shown) [Example 17, 9-(3,4,5-Trimethoxyphenyl)oxalyl-3,9-diaza-3-[4-(3,4-dimethoxyphenyl)butyl]bicyclo[3.3.1]-nonan-2-one]	79%	–	Ki (FKBP12 [2]; Table 1): 140 nM
COc1cc(C(F)(F)C(=O)N2C3CCCC2C(=O)N(CC(CCCc2ccccc2)CCCc2ccccc2)C3)cc(OC)c1OC (stereo not shown) [Example 37]	–	4%	–
COc1cc(C(F)(F)C(=O)N2C3CCC2C(=O)N(C(CCc2ccccc2)CCc2ccccc2)C3)cc(OC)c1OC [Example 30, (1S,5R)-8-(3,4,5-Trimethoxyphenyl)difluoroacetyl-3,8-diaza-3-[3-phenyl-1-(2-phenylethyl)propyl]bicyclo[3.2.1]octan-2-one]	–	4%	–
